The values that follow come from patent publication US4243681A, “Alkylthiophenoxypropanolamines and pharmaceutical compositions and uses thereof” (priority 1979, dated 1981).

One experiment deals with perfused dog hind limb. The experiment is described as follows: Peripheral vasodilator activity, perfused dog hind limb (anesthetized dog). Type of experiment: in vivo. The method, then: Test Method. Mongrol dogs of either sex weighing between 11 and 16 kg., each, were anesthetized with pentobarbital (30 mg./kg.) administered intravenously. The left brachial vein was cannulated and pentobarbital infused continuously throughout the experiment at a rate of 5 mg./kg./hr. A tracheotomy was performed and dogs ventilated mechanically with room air at a rate of 18 strokes/min. and a volume equivalent to 20 ml./kg. The vagi were sectioned bilaterally in the mid-cervical region of the neck. The right brachial vein and artery were cannulated to inject drugs and to monitor blood pressure via a Statham pressure transducer, respectively. All measurements were recorded on a Beckman-Offner dynograph. The abdominal aorta was exposed through midline incision and a loose ligature placed around the aorta distal to the left renal artery. The right (donor) and left (recipient) femoral arteries were exposed for cannulation and subsequent hind-limb perfursion. Following intravenous administration of heparin (5 mg/kg.) and gallamine triethiodide (2 mg./kg.), the right femoral artery was cannulated and the tip of the catheter advanced into the abdominal aorta to the level of the renal arteries. The left femoral artery was cannulated and the hind-limb perfused using a Harvard Perfusion pump. The ligature previously placed around the aorta was subsequently tied to minimize collateral circulation. […] Perfusion pressure, measured at a point distal to the perfusion pump was set equal to 150 mm Hg. by adjusting pump speed. Blood flow to the limb was determined volumetrically at the conclusion of the experiment. The test agent was administered by infusion at a rate of from 0.1-1.0 mg./min. for a six-minute period and maximum reduction in pressure determined. One to three animals were employed per test agent. […] This protocol precludes effects resulting from animal variation thus permitting a direct side-by-side comparison of vasodilating activity.

Experiment [1] deals with human platelet-rich plasma. In words: Inhibition of platelet aggregation in vitro (ADP or collagen induced; antithrombogenic activity). Conditions: for ED50 ADP (inhibition of platelet aggregation): aggregation induced by 1 mcg. ADP; for ED50 Coll (inhibition of platelet aggregation): minimal amount of collagen producing maximal aggregation. Type of experiment: cell-based. Here is the method: Test Method. A method similar to that described in Born, Nature 194, 927 (1962) and O'Brien, J. Clinical Pathology 15, 446 (1962). This test comprises a nephelometric method in which the change in turbidity of a specimen of human platelet-rich plasma is measured on causation of platelet aggregation by addition of adenosine diphosphate (ADP) or collagen as the thrombogenic inducing agent. An increase in transmittance light occurs when the thrombogenic agent is added to the specimen of platelet-rich plasm due to clumping of platelets. Efficacy of the test compound is determined by ability to prevent the clumping and concommitant increase in transmittance. Various concentrations of the test agent are tested and that concentration causing a 50% reduction in the thrombogenic response is determined from a concentration-response curve.

Another experiment has as its target T1, adrenergic beta-receptor (Cavia porcellus, UniProt Q8K4Z4).
T1 construct: Tracheas excised from adult guinea pigs; from tissue; host or cells: guinea pig trachea (spirally cut segments)
In words: Beta-adrenergic blocking activity in the isolated guinea pig trachea (isoproterenol). Type of experiment: cell-based. Conditions: for Beta-Adrenergic Blocking Potency: potency relative to propanol (equals one), isoproterenol 0.1 mcg./ml. Here is the method:
Test Method. […] The lower end of a tracheal segment is fixed to a stationary glass rod and the upper end is threaded to an isometric tension transducer. Changes in the spontaneous tonus of the tracheal smooth muscle are monitored via the transducer and recorded continuously on an electronic recorder. Adrenergic beta-receptor blocking activity is determined by the ability of a test agent to inhibit the response of the isolated tissue to the adrenergic beta-stimulant "isoproterenol" at a concentration of 0.1 mcg./ml. bath fluid. The tissues are exposed to the test agent solution for a 15-min. interval prior to the addition of isoproterenol to the bath fluid. Beta-receptor blocking potency of a test drug is ascertained from concentration-response relationships wherein the response is expressed as a percent inhibition of isoproterenol-induced tissue response. […] Each drug solution is added to the tissue bathing medium at a constant volume of 0.2 ml./ml. of bath fluid and only one test drug concentration is employed for an individual tissue segment. Potency of the test agent relative to that of the beta-adrenergic blocking agent "propanolol" as a reference standard is assessed by comparing the IC50 values.

A further experiment relates to rabbit thoracic aorta. In words: Isolated rabbit thoracic aorta, antispasmodic activity vs. potassium chloride. Type of experiment: cell-based, rabbit (New Zealand White). The following applies: for Antispasmodic Potency: potency relative to papaverine (equals one), from pA2 vs. potassium chloride. The method, then: (§1) Test Method. Antispasmodic activity was assessed in vitro by determining the effect of the test substance on induced contraction of arterial smooth muscle as follows. Adult, male, New Zealand White rabbits (body weight 2.5-4 kg.) were used. Each rabbit was killed by i.v. air injection. The thorax was opened and the descending thoracic aorta removed and placed in Kreb's-bicarbonate solution. Extraneous tissue was removed and the aorta was cut spirally along its entire length. Four spiral segments, each approximately 2 cm. in length (unstretched), were obtained from each thoracic aorta. […] The bath medium surrounding the aortic spiral (Kreb's-bicarbonate solution) was maintained at 37.5°C. and constantly aerated with 95% O2 :5% CO2. Activity of the aortic smooth muscle was recorded on an electronic polygraph via its connection to the tension transducer. After an equilibration period of 60 min., a cumulative dose-response curve was obtained to an agonist (e.g. potassium chloride or norepinephrine) and the tissue then washed. Seventy-five min. later, a second cumulative dose-response curve to the agonist was obtained and the tissue washed again. Sixty min. later, a test drug solution was added to the tissue bath fluid and, after 15 min., drug exposure and, without washing, a third and final agonist-response curve was obtained. All additions to the bath fluid were 0.1 ml. volumes of aqueous solutions.

Another experiment has as its system alpha-adrenergic. In words: Isolated rabbit thoracic aorta, antispasmodic (anti-alpha-adrenergic) activity vs. norepinephrine. Conditions: norepinephrine as agonist. It counts as cell-based, rabbit (New Zealand White). Here is the method: as §1, with “solutions. […] Selective activity against norepinephrine-induced spasms is indicative of alpha-adrenergic blocking (i.e. antispasmodic) activity. […] Phentolamine is an alpha-adrenergic blocking agent and a standard reference in the art. […] This experiment illustrates that the instant compounds are non-anti-alpha-adrenergic antispasmodic agents in that they have a substantial direct smooth muscle relaxant effect (as shown in Example 34) relatively uncomplicated by any significant selective alpha-adrenergic blocking effect.” for “solutions.”

Setting [2] is: potassium chloride-induced spasms.

SMILES strings stand for the structures. Counter-ions that a name gives are not always drawn. Some results are limits rather than exact numbers.

T1 sequence (Q8K4Z4 whole entry): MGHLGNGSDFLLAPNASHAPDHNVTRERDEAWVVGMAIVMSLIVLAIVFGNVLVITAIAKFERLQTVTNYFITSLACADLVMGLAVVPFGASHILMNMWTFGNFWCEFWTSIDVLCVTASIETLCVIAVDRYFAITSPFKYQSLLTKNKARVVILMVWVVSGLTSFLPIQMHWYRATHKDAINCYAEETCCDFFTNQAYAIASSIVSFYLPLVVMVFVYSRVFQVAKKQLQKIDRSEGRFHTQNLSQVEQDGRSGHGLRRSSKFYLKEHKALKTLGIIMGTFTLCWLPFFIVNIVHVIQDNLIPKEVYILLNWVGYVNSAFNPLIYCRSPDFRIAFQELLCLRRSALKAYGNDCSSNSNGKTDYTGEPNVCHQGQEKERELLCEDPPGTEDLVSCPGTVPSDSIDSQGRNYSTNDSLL

Regarding `CCCCCCCCNCC(O)COc1ccc(SC)cc1` (stereo not drawn) [Example 1, 1-[4-(Methylthio)phenoxy]-3-(octylamino)-2-propanol], the “Pressure Decrease” value in the experiment on perfused dog hind limb (infusion rate 0.3 mg./min.) is -22 Millimeters of mercury; in the experiment with perfused dog hind limb (infusion rate 1.0 mg./min.), -59 Millimeters of mercury. Also, the “ED50 ADP (inhibition of platelet aggregation)” value in experiment [1] is reported as 69 Microgram/0.5 ml. plateletrich human plasma. The “ED50 Coll (inhibition of platelet aggregation)” value in experiment [1] is reported as 42 Microgram/0.5 ml. plateletrich human plasma. The “Beta-Adrenergic Blocking Potency” value on adrenergic beta-receptor is below 0.001.
As for `CCCCCCCCNCC(O)COc1cccc(SC(C)C)c1.Cl` (stereo not drawn) [Example 3, 1-[3-[(1-Methylethyl)thio]phenoxy]-3-(octylamino)-2-propanol Hydrochloride], the “Pressure Decrease” value with perfused dog hind limb (infusion rate 0.3 mg./min.) is -20 Millimeters of mercury. Moreover, the “Pressure Decrease” value with perfused dog hind limb (infusion rate 1.0 mg./min.) is reported as -87 Millimeters of mercury. For the same compound, in experiment [1], the “ED50 ADP (inhibition of platelet aggregation)” value was 53 Microgram/0.5 ml. plateletrich human plasma and the “ED50 Coll (inhibition of platelet aggregation)” value is given as 24 Microgram/0.5 ml. plateletrich human plasma. Moreover, the “Beta-Adrenergic Blocking Potency” value on adrenergic beta-receptor is listed as below 0.001. Also, the “Antispasmodic Potency” value with rabbit thoracic aorta was determined as 0.7.
Regarding `CCCCCCCCCCCCNCC(O)COc1ccc(SC(C)C)cc1.Cl` (stereo not drawn) [Example 4, 1-[4-[(1-Methylethyl)thio]phenoxy]-3-(dodecylamino)-2-Propanol Hydrochloride], the “Beta-Adrenergic Blocking Potency” value on adrenergic beta-receptor is below 0.001. In the experiment on rabbit thoracic aorta (setting [2]), the “antispasmodic potency relative to prior art compounds A and B” value was “twice as potent”. For the same compound, the “Antispasmodic Potency” value with rabbit thoracic aorta worked out at 0.08.
Consider `CC(C)Sc1ccc(OCC(O)CNCCC2CCCCC2)cc1` (stereo not drawn) [Example 5, 1-[(2-cyclohexylethyl)amino]-3-[4-[(1-methylethyl)thio]phenoxy]-2-propanolhydrochloride], for which the entries for the “Pressure Decrease” value in the experiment with perfused dog hind limb (infusion rate 0.3 mg./min.) and in the experiment with perfused dog hind limb (infusion rate 1.0 mg./min.) were -63 Millimeters of mercury and -87 Millimeters of mercury, respectively. Moreover, the “ED50 ADP (inhibition of platelet aggregation)” value in experiment [1] is 56 Microgram/0.5 ml. plateletrich human plasma. Besides, the “ED50 Coll (inhibition of platelet aggregation)” value in experiment [1] is on record as 47 Microgram/0.5 ml. plateletrich human plasma. For the same compound, at adrenergic beta-receptor, the “Beta-Adrenergic Blocking Potency” value is given as below 0.0006. Further, the “Antispasmodic Potency” value in the experiment with rabbit thoracic aorta came out at 2.4.
In the case of `CC(C)Sc1ccc(OCC(O)CNCCCCC2CCCCC2)cc1` (stereo not drawn) [Example 6, 1-[(4-cyclohexylbutyl)amino]-3-[4-[(1-methylethyl)thio]phenoxy]-2-propanolhydrochloride], in the experiment on perfused dog hind limb (infusion rate 0.3 mg./min.), the “Pressure Decrease” value is -47 Millimeters of mercury. In addition, the “Pressure Decrease” value in the experiment with perfused dog hind limb (infusion rate 1.0 mg./min.) is -74 Millimeters of mercury. For the same compound, in experiment [1], the “ED50 ADP (inhibition of platelet aggregation)” value is 53 Microgram/0.5 ml. plateletrich human plasma and the “ED50 Coll (inhibition of platelet aggregation)” value is given as 29 Microgram/0.5 ml. plateletrich human plasma. In addition, the “Beta-Adrenergic Blocking Potency” value on adrenergic beta-receptor is below 0.002. Besides, the “antispasmodic potency relative to prior art compounds A and B” value in the experiment with rabbit thoracic aorta (setting [2]) is listed as “about 1/2”. In the experiment on rabbit thoracic aorta, the “Antispasmodic Potency” value is recorded as 0.02.
`CCCCCCCCNCC(O)COc1ccc(SC)cc1C` (stereo not drawn) [Example 7, 1-[2-methyl-4-(methylthio)phenoxy]-3-(octylamino)-2-propanol]: in the experiment with perfused dog hind limb (infusion rate 0.3 mg./min.), the “Pressure Decrease” value is given as -56 Millimeters of mercury. Moreover, the “Pressure Decrease” value in the experiment on perfused dog hind limb (infusion rate 1.0 mg./min.) was -80 Millimeters of mercury. Besides, in experiment [1], the “ED50 ADP (inhibition of platelet aggregation)” value was 82 Microgram/0.5 ml. plateletrich human plasma and the “ED50 Coll (inhibition of platelet aggregation)” value was 39 Microgram/0.5 ml. plateletrich human plasma. Further, the “Beta-Adrenergic Blocking Potency” value on adrenergic beta-receptor is listed as below 0.0006. The “Antispasmodic Potency” value with rabbit thoracic aorta is on record as 0.8.
Turning to `CCCCCCCCNCC(O)COc1ccccc1SC.Cl` (stereo not drawn) [Example 8, 1-[2-(Methylthio)phenoxy]-3-(octylamino)-2-propanol Hydrochloride], the entries for the “Pressure Decrease” value in the experiment with perfused dog hind limb (infusion rate 0.3 mg./min.) and with perfused dog hind limb (infusion rate 1.0 mg./min.) were -15 Millimeters of mercury and -64 Millimeters of mercury, respectively. In experiment [1], the “ED50 ADP (inhibition of platelet aggregation)” value was 65 Microgram/0.5 ml. plateletrich human plasma. Further, in experiment [1], the “ED50 Coll (inhibition of platelet aggregation)” value is 32 Microgram/0.5 ml. plateletrich human plasma. In addition, at adrenergic beta-receptor, the “Beta-Adrenergic Blocking Potency” value is 0.004. Further, in the experiment on rabbit thoracic aorta, the “Antispasmodic Potency” value came to 2.6. Further, the “anti-alpha-adrenergic activity relative to phentolamine” value in the experiment with alpha-adrenergic was 1-2%.
On to `COc1ccc(Cc2nccc3cc(OC)c(OC)cc23)cc1OC` [Papaverine, reference compound], for which the “Pressure Decrease” value in the experiment with perfused dog hind limb (infusion rate 0.3 mg./min.) was -31 Millimeters of mercury.
On to `CSc1ccccc1OCC(O)CNC(C)C` (stereo not drawn) [Test agent A, 1-(isopropylamino)-3-[2-(methylthio)phenoxy]-2-propanol, reference compound], for which, in the experiment on perfused dog hind limb (infusion dose 1.0 mg./min.), the “pressure reduction (findings, range over compounds)” value is recorded as 27-29 mm Hg. Further, the “Pressure Decrease” value with perfused dog hind limb (infusion rate 0.3 mg./min., side-by-side comparison in same animals) was -20 Millimeters of mercury. For the same compound, the “Pressure Decrease” value with perfused dog hind limb (infusion rate 1.0 mg./min., side-by-side comparison in same animals) was -27 Millimeters of mercury. Besides, in experiment [1], the “ED50 ADP (inhibition of platelet aggregation)” value is given as 137 Microgram/0.5 ml. plateletrich human plasma and the “ED50 Coll (inhibition of platelet aggregation)” value was 33 Microgram/0.5 ml. plateletrich human plasma. For the same compound, on adrenergic beta-receptor, the “beta-adrenergic blocking activity (in words)” value is on record as “substantial activity” and the “Beta-Adrenergic Blocking Potency” value was 1.0. Further, in the experiment on rabbit thoracic aorta (setting [2]), the “antispasmodic activity (in words)” value is “relatively weak activity”. Besides, the “Antispasmodic Potency” value with rabbit thoracic aorta turned out to be 0.04. Further, in the experiment on alpha-adrenergic, the “anti-alpha-adrenergic activity relative to phentolamine” value was 1-2%.
